# T1: human CAR (Homo sapiens, UniProt Q14994)
# T1 sequence (Q14994 1-352): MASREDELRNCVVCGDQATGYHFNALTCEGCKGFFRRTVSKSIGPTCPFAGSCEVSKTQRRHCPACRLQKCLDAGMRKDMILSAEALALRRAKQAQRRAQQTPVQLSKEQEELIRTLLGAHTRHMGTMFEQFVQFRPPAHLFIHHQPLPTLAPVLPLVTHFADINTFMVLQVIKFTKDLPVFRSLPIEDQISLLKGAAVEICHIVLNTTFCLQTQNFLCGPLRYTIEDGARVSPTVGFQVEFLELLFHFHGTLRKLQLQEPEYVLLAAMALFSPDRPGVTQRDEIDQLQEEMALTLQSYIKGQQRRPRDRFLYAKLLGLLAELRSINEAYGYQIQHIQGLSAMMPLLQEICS
# B1: Human NR1x3-MinTK: 3× human NR1 region with MinTK minimal promoter, SEQ ID NO: 59 (nucleic acid)
# DNA: ACTGTACTTTCCTGACCCTGAAGAGACTGTACTTTCCTGACCCTGAAGAGACTGTACTTTCCTGACCCTGAAGAGGATCCGGCCCCGCCCAGCGTCTTGTCATTGGCGAATTCGAACACGCAGATGCAGTCGGGGCGGCGCGGTCCGAGGTCCACTTCGCATATTAAGGTGACGCGTGTGGCCTCGAACACCGAGCGACCCTGCAGCGACCCGCTTAACAGCGTCAACAGCGTGCCGCAGATCTCGAGGAGCTTGGCGAGATTTTCAGGAGCT
# modifications: Human NR1x3-Min TK
# Legend:
# primary hepatocytes = assay: Induction of PBREM variants by CITCO and flavone in primary hepatocytes; format: cell-based, human
# Text: (§1) In the earlier examples, variants of the promoters used contained a mouse PBREM element. To confirm our expectation that the human PBREM element could also be used, we also assessed the inducibility of the human PBREM; this is potentially relevant because one aim of this project is to provide inducible promoters for use in human gene therapy, and the human sequence may have some advantages. In addition, we also assessed human and mouse hybrids of the PBREM element to determine if we could modulate or improve the inducibility and background level of the promoters. Such new combinations would not be found in nature in any context, and would likely to have novel traits, e.g. background and induction level. The constructs were tested in the PGL4.10 backbone as previously described, and are listed below in Table 2. These were: Human NR1×3-Min TK (3× human NR1 region with MinTK minimal promoter); Human PBREM-minTK (human PBREM with MinTK minimal promoter); hNR1-mNF1-hNR2-Min TK (Human Mouse Human hybrid with MinTK minimal promoter); hNR1-mNFI mNR2-Min TK (Human Mouse Mouse hybrid with MinTK minimal promoter); mNR1-hNF1-mNR2-Min TK (Mouse Human Mouse hybrid with MinTK minimal promoter); mNR1-hNF1-hNR2-Min TK (Mouse Human Human hybrid with MinTK minimal promoter); hPB-SV40 (human PBREM with SV40 minimal promoter); and MHM-SV40 (Mouse Human Mouse hybrid with SV40 minimal promoter)—SEQ ID NOs: 59 to 66, respectively.
# (§2) These constructs were tested in the Huh7 stable cell line and primary hepatocytes as previously described. In addition, to testing the constructs with the traditional human CAR activator CITCO we also tested the natural compound flavone. […] CITCO has been predicted to be relatively unstable in vivo, and there is no data available for its safety of use in humans, and is therefore preferred for use only in tissue culture. Furthermore, the in vivo results presented above used phenobarbital as the inducer. In some contexts the use of phenobarbital may be undesirable, even if at 10× less than the recommended dose (which appears to be possible in view of the data above). Therefore, flavone may be a more desirable inducer that mitigates any safety or regulatory issues.
# (§3) Expression and induction from these promoters was assessed using both CITCO and flavone in both the Huh7 CAR expressing stable cell line and primary hepatocytes as previously described.
# [1] = tested on: Huh7 cell line stably expressing human CAR; assay: Induction of PBREM variants by CITCO and flavone in Huh7 cell line stably expressing human CAR; format: cell-based
# Text: as §1, §2, §3
# human CAR = target: T1, human CAR; settings: cited from earlier work
# [2] = monomers compared with PB1 (FIG. 10), multimers with PB1-2 (FIG. 12)
# [3] = monomers compared with PB1 (FIG. 9), multimers with PB1-2 (FIG. 11)
Molecule,activation of human CAR (human CAR),induction (primary hepatocytes; CITCO and flavone),background (primary hepatocytes; [2]),induction ([1]; CITCO and flavone),"background [1, 3]",also measured
"hPB: human PBREM element (SEQ ID NO: 2), tested with Min-TK and SV40 minimal promoters (DNA ACTGTACTTTCCTGACCCTGAAGAGGTGGCAGCATGGACTTTCCTGAACCA; expressed or natural sequence; listed as Homo sapiens)",,,,,,"performance (inducibility and background) compared with PB1 (primary hepatocytes; CITCO and flavone, FIG. 10): almost identical manner to the mouse PBREM (PB1); performance (inducibility and background) compared with PB1 ([1]; CITCO and flavone, FIG. 9): almost identical manner to the mouse PBREM (PB1)"
"O=c1cc(-c2ccccc2)oc2ccccc12 [flavone, reference compound]",previously been reported to activate human CAR,,,,,concentration demonstrated suitable to induce expression ([1]; administered to cells): 30 µM
"MHM hybrid: Mouse Human Mouse hybrid PBREM element (SEQ ID NO: 74), tested with Min-Tk and SV40 minimal promoters (DNA TCTGTACTTTCCTGACCTTGAAGAGGTGGCACCATCAACTTGCCTGACACC; expressed or natural sequence)",,good induction,lower background,good induction,lower background,"overall activity / expression level (primary hepatocytes; [2]): lower overall activity; overall activity / expression level [1, 3]: lower overall activity"
"Clc1cnc(Oc2ccc(Oc3ncc(Cl)cc3Cl)cc2)c(Cl)c1 [TCPOBOP, 1,4-Bis[2-(3,5-dichloropyridyloxy)]benzene]",does not activate human CAR,,,,,
B1,,less so in the primary cells,relatively high background,only induced in the stable cell line,relatively high background,

# Source: patent US12472269B2, “Liver-specific inducible promoters and methods of use thereof” (ASKBIO INC., priority 2019, dated 2025)
